These results are taken from PubChem BioAssay AID330 (DTP/NCI, 2004).

The test system of the experiment is P388 leukemia ip, CD2F1 mice, survival T/C. The experiment is described as follows: NCI In Vivo Anticancer Drug Screen. Data for tumor model P388 Leukemia (intraperitoneal) in CD2F1 (CDF1) mice. Conditions: endpoint: median survival time, higher = longer survival. A digest of the protocol: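 Mice carrying the transplanted tumor received test compound or vehicle. Survival was recorded in each group, and the value is the treated-group measurement divided by that of the vehicle-treated control group.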

Where [1] appears, read: dose: 50.0 mg/kg/injection, schedule: Q01DX005 (ip), vehicle: saline.
[2] abbreviates: dose: 100.0 mg/kg/injection, schedule: Q01DX005 (ip), vehicle: saline.
The mark [3] stands for this setting: dose: 200.0 mg/kg/injection, schedule: Q01DX005 (ip), vehicle: saline.
Where [4] appears, read: dose: 6.25 mg/kg/injection, schedule: Q01DX005 (ip), vehicle: Klucel (hydroxypropylcellulose) (HPC).
The mark [5] stands for this setting: dose: 12.5 mg/kg/injection, schedule: Q01DX005 (ip), vehicle: Klucel (hydroxypropylcellulose) (HPC).
The mark [6] stands for this setting: dose: 50.0 mg/kg/injection, schedule: Q01DX005 (ip), vehicle: saline with Tween-80.
Setting [7] is: dose: 12.5 mg/kg/injection, schedule: Q01DX005 (ip), vehicle: saline with Tween-80.
The mark [8] stands for this setting: dose: 25.0 mg/kg/injection, schedule: Q01DX005 (ip), vehicle: saline with Tween-80.
Where [9] appears, read: dose: 100.0 mg/kg/injection, schedule: Q01DX005 (ip), vehicle: saline with Tween-80.
[10] abbreviates: dose: 200.0 mg/kg/injection, schedule: Q01DX005 (ip), vehicle: saline with Tween-80.
[11] abbreviates: dose: 50.0 mg/kg/injection, schedule: Q01DX009 (ip), vehicle: saline with Tween-80.
[12] abbreviates: dose: 100.0 mg/kg/injection, schedule: Q01DX009 (ip), vehicle: saline with Tween-80.
Setting [13] is: dose: 200.0 mg/kg/injection, schedule: Q01DX009 (ip), vehicle: saline with Tween-80.
[14] abbreviates: dose: 400.0 mg/kg/injection, schedule: Q01DX009 (ip), vehicle: saline with Tween-80.

The structures appear in SMILES notation. “And” between values parts separate entries of the source, which are not always exact repeats. Equal entries are not always repeated. Inconclusive results and toxic doses are left out.

`Cc1cc([N+](=O)[O-])c([N+](=O)[O-])cc1Cl`: the T/C runs as follows: (dose: 50.0 mg/kg/injection, schedule: Q01DX001 (ip), vehicle: other) 100 % of control; (dose: 100.0 mg/kg/injection, schedule: Q01DX001 (ip), vehicle: other) 100 % of control; (dose: 200.0 mg/kg/injection, schedule: Q01DX001 (ip), vehicle: other) 105 % of control.
As to `COc1ccc(N=Cc2cc3c(cc2Br)OCO3)cc1`, the T/C was 97 % of control (dose: 25.0 mg/kg/injection, schedule: Q01DX009 (ip), vehicle: other); 96 % of control (dose: 50.0 mg/kg/injection, schedule: Q01DX009 (ip), vehicle: other); 94 % of control (dose: 100.0 mg/kg/injection, schedule: Q01DX009 (ip), vehicle: other); 100 % of control (dose: 200.0 mg/kg/injection, schedule: Q01DX009 (ip), vehicle: other); 100 % of control (dose: 400.0 mg/kg/injection, schedule: Q01DX009 (ip), vehicle: other).
`CN1CCN(CCCNN)CC1`: the T/C runs as follows: under setting [1], 93 % of control; under setting [2], 101 % of control; under setting [3], 101 % of control.
Turning to `N[C@@]1(C(F)(F)F)N[C@](N)(C(F)(F)F)C(F)(F)C(F)(F)C1(F)F`, the T/C is 102 % of control under setting [4] and 95 % of control under setting [5].
Take `Cc1c(COC(=O)NC(C)C)c(COC(=O)NC(C)C)c(-c2ccccc2)n1-c1ccccc1`: the T/C under setting [6] is 188 % of control and 192 % of control.
Take `C(=C\c1ccnc2c1ccc1ccccc12)/c1ccccc1`: the T/C by setting is: under setting [7], 96 % of control; under setting [8], 96 % of control; under setting [6], 90 % of control; under setting [9], 88 % of control; under setting [10], 88 % of control.
On to `CN=C(N)N/N=C(\c1ccccc1)c1ccc(Cl)cc1`, for which the T/C by setting is: (dose: 6.25 mg/kg/injection, schedule: Q04DX002 (ip), vehicle: saline with Tween-80) 102 % of control; (dose: 12.5 mg/kg/injection, schedule: Q04DX002 (ip), vehicle: saline with Tween-80) 109 % of control; (dose: 25.0 mg/kg/injection, schedule: Q04DX002 (ip), vehicle: saline with Tween-80) 153 % of control.
Take `CN=C(NC)c1ccc(NC(=O)c2cc(OC)cc(C(=O)Nc3ccc(C(=NC)NC)cc3)c2)cc1`: the T/C was 100 % of control under setting [4]; 110 % of control under setting [5]; 110 % of control (dose: 25.0 mg/kg/injection, schedule: Q01DX005 (ip), vehicle: Klucel (hydroxypropylcellulose) (HPC)).
With `COc1ccc(OC)c(NC(=O)Oc2cccc(NC(C)=O)c2)c1`, the T/C reads like this: (dose: 25.0 mg/kg/injection, schedule: Q01DX009 (ip), vehicle: saline with Tween-80) 105 % of control; under setting [11], 106 % of control; under setting [12], 104 % of control; under setting [13], 107 % of control; under setting [14], 104 % of control.
For `[NH-]C(Cc1cnc[n-]1)C(=O)O.[NH-]C(Cc1cnc[n-]1)C(=O)O.[O]=[Mo]1[O][Mo](=[O])[O]1` (configuration not stated), the T/C (dose: 50.0 mg/kg/injection, schedule: Q01DX009 (ip), vehicle: suspension in saline) was 99 % of control; the T/C (dose: 100.0 mg/kg/injection, schedule: Q01DX009 (ip), vehicle: suspension in saline) was 99 % of control; the T/C (dose: 200.0 mg/kg/injection, schedule: Q01DX009 (ip), vehicle: suspension in saline) was 99 % of control.
In the case of `S=C(C(=S)N1CCOCC1)N1CCOCC1`, the T/C was 110 % of control (dose: 25.0 mg/kg/injection, schedule: Q01DX009 (ip), vehicle: Klucel (hydroxypropylcellulose) (HPC)); 100 % of control (dose: 50.0 mg/kg/injection, schedule: Q01DX001 (ip), vehicle: saline); 99 % of control and 101 % of control and 112 % of control (dose: 50.0 mg/kg/injection, schedule: Q01DX009 (ip), vehicle: Klucel (hydroxypropylcellulose) (HPC)); 107 % of control (dose: 100.0 mg/kg/injection, schedule: Q01DX001 (ip), vehicle: saline); 101 % of control and 114 % of control (dose: 100.0 mg/kg/injection, schedule: Q01DX009 (ip), vehicle: Klucel (hydroxypropylcellulose) (HPC)); 112 % of control (dose: 200.0 mg/kg/injection, schedule: Q01DX001 (ip), vehicle: saline). The T/C (dose: 200.0 mg/kg/injection, schedule: Q01DX009 (ip), vehicle: Klucel (hydroxypropylcellulose) (HPC)) is 103 % of control and 110 % of control and 123 % of control.
As to `C/C=C/C=C/C(O)CC(=O)N1OC2(C)c3ccccc3C1(C)c1ccccc12` (configuration not stated), the T/C was 92 % of control (dose: 100.0 mg/kg/injection, schedule: Q04DX003 (ip), vehicle: saline + alcohol); 92 % of control (dose: 200.0 mg/kg/injection, schedule: Q04DX003 (ip), vehicle: saline + alcohol); 98 % of control (dose: 400.0 mg/kg/injection, schedule: Q04DX003 (ip), vehicle: saline + alcohol).
On to `CCOc1ccc(N2CC(=O)N3CCCC(C)N3C(=O)C2)cc1` (configuration not stated), for which the T/C is 101 % of control under setting [6], 101 % of control under setting [9] and 103 % of control under setting [10].
For `CS1=C2C(=O)CC(C)(C)CC2=Nc2ccccc21` (configuration not stated), the T/C runs as follows: under setting [7], 104 % of control; under setting [8], 104 % of control; under setting [6], 99 % of control and 100 % of control.
Turning to `N#CSCc1ccc(CSC#N)c(Cl)c1`, the T/C by setting is: (dose: 1.56 mg/kg/injection, schedule: Q04DX003 (ip), vehicle: saline sonified) 100 % of control; (dose: 2.08 mg/kg/injection, schedule: Q01DX009 (ip), vehicle: saline with Tween-80) 109 % of control; (dose: 3.13 mg/kg/injection, schedule: Q01DX009 (ip), vehicle: saline with Tween-80) 100 % of control; (dose: 3.13 mg/kg/injection, schedule: Q04DX003 (ip), vehicle: saline sonified) 104 % of control; (dose: 4.69 mg/kg/injection, schedule: Q01DX009 (ip), vehicle: saline with Tween-80) 118 % of control; (dose: 6.25 mg/kg/injection, schedule: Q04DX003 (ip), vehicle: saline sonified) 109 % of control.
`CC(=O)Nc1ccc(S(=O)(=O)N/N=c2/sc3ccccc3n2C)cc1N`: the T/C is, setting by setting: (dose: 6.25 mg/kg/injection, schedule: Q01DX009 (ip), vehicle: saline) 96 % of control; (dose: 12.5 mg/kg/injection, schedule: Q01DX009 (ip), vehicle: saline) 103 % of control; (dose: 25.0 mg/kg/injection, schedule: Q01DX009 (ip), vehicle: saline) 100 % of control; (dose: 100.0 mg/kg/injection, schedule: Q01DX009 (ip), vehicle: saline) 88 % of control; (dose: 200.0 mg/kg/injection, schedule: Q01DX009 (ip), vehicle: saline) 92 % of control.
In the case of `CN(C)c1ccc(-c2nc(-c3ccccc3)c(-c3ccccc3)[nH]2)cc1`, the T/C under setting [11] was 104 % of control, the T/C under setting [12] was 100 % of control, the T/C under setting [13] is 104 % of control and the T/C under setting [14] was 106 % of control.
Turning to `O=C1NC(=O)C(=O)N1`, the T/C is 100 % of control (dose: 100.0 mg/kg/injection, schedule: Q04DX003 (ip), vehicle: saline) and 100 % of control (dose: 400.0 mg/kg/injection, schedule: Q04DX003 (ip), vehicle: saline).
On to `COc1ccc(/C=C2/N=C(c3ccccc3)OC2=O)cc1`, for which the T/C by setting is: (dose: 60.0 mg/kg/injection, schedule: Q01DX005 (ip), vehicle: saline with Tween-80) 93 % of control; (dose: 120.0 mg/kg/injection, schedule: Q01DX005 (ip), vehicle: saline with Tween-80) 93 % of control; (dose: 240.0 mg/kg/injection, schedule: Q01DX005 (ip), vehicle: saline with Tween-80) 87 % of control.
Take `Cc1ccc(S(=O)(=O)OC[C@H]2CCCC[C@H]2COS(=O)(=O)c2ccc(C)cc2)cc1`: the T/C reads like this: (dose: 100.0 mg/kg/injection, schedule: Q04DX003 (ip), vehicle: Klucel (hydroxypropylcellulose) (HPC)) 113 % of control; (dose: 200.0 mg/kg/injection, schedule: Q04DX003 (ip), vehicle: Klucel (hydroxypropylcellulose) (HPC)) 114 % of control; (dose: 400.0 mg/kg/injection, schedule: Q04DX003 (ip), vehicle: Klucel (hydroxypropylcellulose) (HPC)) 119 % of control.
Turning to `COc1ccc(-c2nn3c(=O)c(Cc4ccccc4)c(O)nc3nc2-c2ccccc2)cc1`, the T/C reads like this: under setting [4], 103 % of control; under setting [5], 93 % of control.
Take `CN1CC(F)OC(F)(F)C1` (configuration not stated): the T/C under setting [1] was 102 % of control, the T/C under setting [2] was 100 % of control and the T/C under setting [3] was 100 % of control.
